Experimental data published in US8778966B2, “Quinolinone derivatives as PARP and tank inhibitors” (Janssen Pharmaceutica, NV, priority 2007, dated 2014).

How the values were obtained:
Human PARP-1 enzyme = biological target: T1, Human PARP-1 enzyme (Homo sapiens, UniProt P09874); experiment: In vitro Scintillation Proximity Assay (SPA) for PARP-1 inhibitory activity; type: biochemical; details: for IC50: read-out: in vitro SPA assay PARP-1 pIC50 (converted)
T1 construct: purchased Trevigen
Method in brief: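 SPA assay: nicked-DNA-activated PARP-1 (0.1–0.2 μg/ml) ADP-ribosylates biotinylated histones (2 μg/ml) using [3H]-NAD+, 20 min at RT in Tris pH 8/DTT/MgCl2, stopped with 2 mM NAD+. Blank-subtracted cpm expressed as % control; IC50 by linear interpolation, reported as pIC50 (10−5 to 3×10−9 M tested).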

PC-3 cells = experiment: Antiproliferative activity, Alamar Blue assay, PC-3 cells; type: cell-based, human; details: for IC50: Homo sapiens, PC-3, PC3 cells, read-out: PC3 antiproliferative activity pIC50 (converted)
Method: Human prostate cancer PC-3 cells obtained from the ATCC were cultured in HAM′S F12 medium supplemented with 1 mM Sodium Pyruvate, 1.5 g/L Sodium Bicarbonate, 50 μg/ml gentamicin, non-essential amino acids and 10% fetal calf serum.
Resazurin was purchased from Aldrich (Prod. No. 199303). Potassium ferrocyanide, potassium ferricyanide, KH2PO4 and K2HPO4 were purchased from Sigma (Prod. Nos. P9387, P8131, P5655 and P8281, respectively).
Potassium Phosphate Buffer 0.1 M (PPB) was made as follows: 2.72 gram KH2PO4 and 13.86 gram K2HPO4 were dissolved in 500 ml milli-Q H2O, the pH was adjusted to pH 7.4 and the volume was brought to 1 litre with milli-Q H2O; the buffer was filter sterilised and stored at room temperature. Resazurin stock solution (PPB-A) was prepared fresh by dissolving 45 mg resazurin in 15 ml PBS. 30 mM potassium ferricyanide (PPB-B) was prepared by dissolving 0.987 gram potassium ferricyanide in 100 ml PPB. 30 mM potassium ferrocyanide (PPB-C) was prepared by dissolving 1.266 gram potassium ferrocyanide in 100 ml PPB.
Mixture of PPB-A, PPB-B and PPB-C was prepared by mixing equal volumes of the respective solutions. Resazurin work solution (herein termed “Alamar Blue” solution) was prepared by diluting said mixture 20×(vol/vol) in PPB and filter sterilising; the Alamar Blue solution could be kept at 4° C. for a maximum of 2 weeks.
For experiments in 384 wells plates the cells were seeded at a density of 4.5×10^3 cells/ml in Falcon 384-well culture plates (Life Technologies, Merelbeke, Belgium), black with clear bottom, in 45 μl culture medium. Cells were allowed to adhere to plastic for 24 hr. The tested compound was pre-diluted (1/50 in culture medium) and 5 μl pre-diluted compound was added to the wells. Following 4-day incubation, 10 μl of the Alamar Blue solution was added to each well and the cells were further incubated for 4 hrs (HCT116) or 24 hrs (PC-3) at 37° C. The fluorescence intensity was measured for each well on a Fluorescence plate reader (Fluorskan, Labsystems, 540 nm excitation and 590 nm emission)
The antiproliferative activity was calculated as percentage of remaining viable cells in treated versus control (untreated cells) conditions. Within an experiment, the result for each experimental condition is the mean of 3 replicate wells. When appropriate, the experiments were repeated to establish full concentration-response curves. When appropriate, IC50-values (concentration of the drug, needed to reduce cell growth to 50% of the control) were computed using probit analysis for graded data (Finney, D. J., Probit Analyses, 2nd Ed. Chapter 10, Graded Responses, Cambridge University Press, Cambridge 1962). Herein the effects of test compounds are expressed as pIC50 (the negative log value of the IC50-value) (see Table 2).

T1 sequence (P09874 whole entry): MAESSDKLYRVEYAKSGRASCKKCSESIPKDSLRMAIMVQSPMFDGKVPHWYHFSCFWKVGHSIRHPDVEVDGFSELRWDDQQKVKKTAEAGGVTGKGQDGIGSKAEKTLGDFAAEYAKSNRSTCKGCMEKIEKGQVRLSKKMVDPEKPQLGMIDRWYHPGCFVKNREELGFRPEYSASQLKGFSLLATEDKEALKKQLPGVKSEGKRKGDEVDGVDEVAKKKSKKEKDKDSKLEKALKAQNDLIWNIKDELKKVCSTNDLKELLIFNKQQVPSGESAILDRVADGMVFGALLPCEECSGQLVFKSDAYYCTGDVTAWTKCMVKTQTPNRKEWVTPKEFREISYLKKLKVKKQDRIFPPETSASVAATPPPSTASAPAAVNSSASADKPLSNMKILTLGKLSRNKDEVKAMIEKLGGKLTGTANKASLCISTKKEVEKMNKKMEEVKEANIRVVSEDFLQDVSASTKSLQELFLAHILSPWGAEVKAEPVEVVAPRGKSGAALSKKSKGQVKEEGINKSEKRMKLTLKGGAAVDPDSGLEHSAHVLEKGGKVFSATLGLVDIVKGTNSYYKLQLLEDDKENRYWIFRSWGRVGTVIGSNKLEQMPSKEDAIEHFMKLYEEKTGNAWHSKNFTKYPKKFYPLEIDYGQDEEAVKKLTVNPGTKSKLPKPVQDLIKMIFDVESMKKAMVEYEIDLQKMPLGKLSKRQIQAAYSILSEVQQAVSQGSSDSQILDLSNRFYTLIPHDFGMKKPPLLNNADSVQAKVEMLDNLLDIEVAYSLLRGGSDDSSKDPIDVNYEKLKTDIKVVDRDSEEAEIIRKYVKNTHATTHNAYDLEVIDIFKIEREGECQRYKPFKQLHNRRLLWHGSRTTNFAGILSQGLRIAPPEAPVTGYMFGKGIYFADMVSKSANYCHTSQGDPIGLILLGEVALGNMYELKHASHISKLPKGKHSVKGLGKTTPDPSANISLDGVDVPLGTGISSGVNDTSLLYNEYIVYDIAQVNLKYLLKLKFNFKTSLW

IC50 (Human PARP-1 enzyme) [nM] | IC50 (PC-3 cells) [nM] | in vitro SPA assay PARP-1 pIC50 (Human PARP-1 enzyme) | PC3 antiproliferative activity pIC50 (PC-3 cells; PC3 cells) | Compound
631 | 158 | – | – | C#Cc1cccc(CC(C)(C#N)c2ccc3cc(CC)c(=O)[nH]c3c2)c1 (racemic) [Compound 168]
– | – | 6.4 | 5.4 | CCc1cc2ccc(C(C)(C#N)CC3COc4ccccc4O3)cc2[nH]c1=O (single isomer, unassigned) [Compound 48]
501 | 1580 | – | – | CCc1cc2ccc([C@@](C)(C#N)CCOc3ccccc3)cc2[nH]c1=O (single isomer, unassigned) [Compound 150]
1580 | 1000 | – | – | Cc1cc2ccc([C@@](C)(C#N)CCOc3ccccc3)cc2[nH]c1=O (single isomer, unassigned) [Compound 164]
79.4 | > 10000 | – | – | CCc1cc2ccc(C(C)(C#N)Cc3cccc(C(=O)O)c3)cc2[nH]c1=O (stereo not drawn) [Compound 10]
631 | 1580 | – | – | CCc1cc2ccc(C(C)(C#N)Cc3cccc(-c4nc(C)no4)c3)cc2[nH]c1=O (stereo not drawn) [Compound 11]
501 | 63.1 | – | – | CCc1cc2ccc(C(C)(C#N)Cc3cccc(C(=O)OC)c3)cc2[nH]c1=O (stereo not drawn) [Compound 12]
398 | 7940 | – | – | CCc1cc2ccc(C(C)(C#N)Cc3cccc(C(=O)NC)c3)cc2[nH]c1=O (stereo not drawn) [Compound 13]
398 | > 10000 | – | – | CCc1cc2ccc(C(C)(C#N)Cc3cccc(NS(C)(=O)=O)c3)cc2[nH]c1=O (stereo not drawn) [Compound 14]
316 | 2510 | – | – | CCc1cc2ccc(C(C)(C#N)Cc3cccc(N)c3)cc2[nH]c1=O (stereo not drawn) [Compound 15]
158 | > 10000 | – | – | CCc1cc2ccc(C(C)(C#N)Cc3cccc(NC(=O)N4CCOCC4)c3)cc2[nH]c1=O (stereo not drawn) [Compound 16]
631 | 1000 | – | – | CCc1cc2ccc(C(C)(C#N)Cc3ccccc3Br)cc2[nH]c1=O (stereo not drawn) [Compound 104]
794 | 1000 | – | – | CCc1cc2ccc(C(C)(C#N)Cc3ccccc3C)cc2[nH]c1=O (stereo not drawn) [Compound 105]
398 | 794 | – | – | CCc1cc2ccc(C(C)(C#N)Cc3ccccc3F)cc2[nH]c1=O (stereo not drawn) [Compound 106]
251 | 251 | – | – | CCc1cc2ccc(C(C)(C#N)Cc3cccc(C)c3)cc2[nH]c1=O (stereo not drawn) [Compound 107]
1260 | > 10000 | – | – | CCc1cc2ccc(C(C)(C#N)Cc3ccc(C(F)(F)F)cc3)cc2[nH]c1=O (stereo not drawn) [Compound 108]
794 | 631 | – | – | CCc1cc2ccc(C(C)(C#N)Cc3cccc(C(F)(F)F)c3)cc2[nH]c1=O (stereo not drawn) [Compound 109]
794 | 200 | – | – | CCc1cc2ccc(C(C)(C#N)Cc3cccc(OC(F)(F)F)c3)cc2[nH]c1=O (stereo not drawn) [Compound 110]
251 | > 10000 | – | – | CCc1cc2ccc(C(C)(C#N)Cc3ccc(C#N)cc3)cc2[nH]c1=O (stereo not drawn) [Compound 111]
200 | 398 | – | – | CCc1cc2ccc(C(C)(C#N)Cc3cccc(F)c3)cc2[nH]c1=O (stereo not drawn) [Compound 112]
251 | 251 | – | – | CCc1cc2ccc(C(C)(C#N)Cc3cccc(OC)c3)cc2[nH]c1=O (stereo not drawn) [Compound 113]
1000 | 1580 | – | – | CCc1cc2ccc(C(C)(C#N)Cc3ccc(OC(F)(F)F)cc3)cc2[nH]c1=O (stereo not drawn) [Compound 114]
316 | 631 | – | – | CCc1cc2ccc(C(C)(C#N)Cc3ccc(F)cc3)cc2[nH]c1=O (stereo not drawn) [Compound 115]
1000 | 794 | – | – | CCc1cc2ccc(C(C)(C#N)Cc3c(F)c(F)c(F)c(F)c3F)cc2[nH]c1=O (stereo not drawn) [Compound 116]
398 | 2000 | – | – | CCc1cc2ccc(C(C)(C#N)Cc3ccc(C)cc3)cc2[nH]c1=O (stereo not drawn) [Compound 117]
398 | 1260 | – | – | CCc1cc2ccc(C(C)(C#N)Cc3ccc(Br)cc3)cc2[nH]c1=O (stereo not drawn) [Compound 118]
316 | 2510 | – | – | CCc1cc2ccc(C(C)(C#N)Cc3ccc(OC)cc3)cc2[nH]c1=O (stereo not drawn) [Compound 119]

IC50 (Human PARP-1 enzyme) [nM] | IC50 (PC-3 cells) [nM] | in vitro SPA assay PARP-1 pIC50 (Human PARP-1 enzyme) | PC3 antiproliferative activity pIC50 (PC-3 cells; PC3 cells) | Compound
631 | 794 | – | – | CCc1cc2ccc(C(C)(C#N)Cc3cccc(F)c3F)cc2[nH]c1=O (stereo not drawn) [Compound 120]
1580 | 631 | – | – | CCc1cc2ccc(C(C)(C#N)Cc3cccc(Cl)c3Cl)cc2[nH]c1=O (stereo not drawn) [Compound 121]
1260 | 398 | – | – | CCc1cc2ccc(C(C)(C#N)Cc3ccc4ccccc4c3)cc2[nH]c1=O (stereo not drawn) [Compound 122]
158 | > 10000 | – | – | CCc1cc2ccc(C(C)(C#N)Cc3ccc4c(c3)nnn4C)cc2[nH]c1=O (stereo not drawn) [Compound 123]
501 | 2000 | – | – | CCc1cc2ccc(C(C)(C#N)Cc3ccc4c(c3)OCCO4)cc2[nH]c1=O (stereo not drawn) [Compound 124]
1000 | 251 | – | – | CCc1cc2ccc(C(C)(C#N)Cc3cc(C)cc(C)c3)cc2[nH]c1=O (stereo not drawn) [Compound 125]
794 | 200 | – | – | CCc1cc2ccc(C(C)(C#N)Cc3cc(F)cc(Cl)c3)cc2[nH]c1=O (stereo not drawn) [Compound 126]
1000 | 1000 | – | – | CCc1cc2ccc(C(C)(C#N)Cc3cc(F)cc(C(F)(F)F)c3)cc2[nH]c1=O (stereo not drawn) [Compound 127]
501 | 200 | – | – | CCc1cc2ccc(C(C)(C#N)Cc3cc(F)cc(F)c3)cc2[nH]c1=O (stereo not drawn) [Compound 128]
631 | 5010 | – | – | CCc1cc2ccc(C(C)(C#N)Cc3cccc(S(C)(=O)=O)c3)cc2[nH]c1=O (stereo not drawn) [Compound 129]
631 | 398 | – | – | CCc1cc2ccc(C(C)(C#N)Cc3cccc(Cl)c3F)cc2[nH]c1=O (stereo not drawn) [Compound 130]
1580 | > 10000 | – | – | CCc1cc2ccc(C(C)(C#N)Cc3cc(C(F)(F)F)cc(C(F)(F)F)c3)cc2[nH]c1=O (stereo not drawn) [Compound 131]
1260 | 631 | – | – | CCc1cc2ccc(C(C)(C#N)Cc3cccc(C)c3F)cc2[nH]c1=O (stereo not drawn) [Compound 132]
794 | 501 | – | – | CCc1cc2ccc(C(C)(C#N)Cc3cc(Br)cc(Br)c3)cc2[nH]c1=O (stereo not drawn) [Compound 133]
1260 | 1000 | – | – | CCc1cc2ccc(C(C)(C#N)Cc3cccc(C(F)(F)F)c3F)cc2[nH]c1=O (stereo not drawn) [Compound 134]
1000 | 1000 | – | – | CCc1cc2ccc(C(C)(C#N)Cc3c(Cl)cccc3Cl)cc2[nH]c1=O (stereo not drawn) [Compound 135]
1580 | 1000 | – | – | CCc1cc2ccc(C(C)(C#N)Cc3c(Cl)cccc3Br)cc2[nH]c1=O (stereo not drawn) [Compound 136]
1260 | 794 | – | – | CCc1cc2ccc(C(C)(C#N)Cc3ccc(F)cc3F)cc2[nH]c1=O (stereo not drawn) [Compound 137]
1260 | 1000 | – | – | CCc1cc2ccc(C(C)(C#N)Cc3c(F)cccc3F)cc2[nH]c1=O (stereo not drawn) [Compound 138]
1260 | 794 | – | – | CCc1cc2ccc(C(C)(C#N)Cc3ccc(F)cc3Br)cc2[nH]c1=O (stereo not drawn) [Compound 139]
631 | 631 | – | – | CCc1cc2ccc(C(C)(C#N)Cc3cccc(Cl)c3)cc2[nH]c1=O (stereo not drawn) [Compound 140]
1000 | 79.4 | – | – | CCc1cc2ccc(C(C)(C#N)Cc3cc(Cl)cc(Cl)c3)cc2[nH]c1=O (stereo not drawn) [Compound 141]
631 | 316 | – | – | CCOc1ccccc1OCCC(C)(C#N)c1ccc2cc(CC)c(=O)[nH]c2c1 (stereo not drawn) [Compound 142]
794 | 794 | – | – | CCc1cc2ccc(C(C)(C#N)CCOc3cccc(C)c3)cc2[nH]c1=O (stereo not drawn) [Compound 143]
251 | 631 | – | – | CCc1cc2ccc(C(C)(C#N)CCOc3ccc(F)cc3)cc2[nH]c1=O (stereo not drawn) [Compound 144]
200 | 501 | – | – | CCc1cc2ccc(C(C)(C#N)CCOc3ccccc3)cc2[nH]c1=O (stereo not drawn) [Compound 145]
398 | 501 | – | – | CCc1cc2ccc(C(C)(C#N)CCOc3ccc(Cl)cc3)cc2[nH]c1=O (stereo not drawn) [Compound 146]
